Reference: US20240425497A1, “Cbl-b Inhibitors and Methods of Use Thereof” (ARCUS BIOSCIENCES, INC., priority 2023, published 2024)

How the values were obtained:
Cbl-b = Cbl-b (Homo sapiens (Human), UniProt Q13191); assay: Cbl-b probe displacement HTRF binding assay; conditions: 0.4 nM biotinylated Cbl-b, 150 nM BODIPY probe
Protocol: The affinity with which compounds of the present disclosure bind to Cbl-b was assessed using probe displacement homologous time resolved fluorescence (HTRF) assays. The assays used a BODIPY™ conjugated probe (Example 54 from WO 2020264398) and biotinylated Cbl-b. The assays were performed in assay buffer consisting of 20 mM Hepes, 150 mM NaCl, 0.01% Triton X-100, 0.5 mM TCEP, 0.01% BSA. On the day of the assay, a 20 point, 1:2 master serial dilution of each compound was prepared in DMSO to span a final concentration range of 10 μM to 0 nM. Two hundred nanoliters of diluted compound was added to each well of a 384-well plate. Fifteen microliters of biotinylated-Cbl-b resuspended in assay buffer were added to each well and the plate incubated for 60 minutes at room temperature prior to addition of 5 μL of BODIPY™ probe in assay buffer. Final assay conditions included 0.4 nM of Cbl-b and 150 nM of BODIPY™ probe. After a further 15 minutes of incubation at room temperature, 5 μl of Streptavidin-Terbium cryptate reagent at 5-fold final concentration was added to each well of the 384-well plate. Binding of a probe to Cbl-b results in an increase of HTRF signal. HTRF signal was measured by Envision plate reader, while competition of a compound of the present disclosure with probe results in a decrease of signal. Percentage maximum activity in each test well was calculated based on DMSO (maximum activity, 0% displacement) and no protein control wells (baseline activity, 100% displacement). Binding affinity was determined from a dose response curve fitted using a standard four parameter fit equation. See Table 3 for data for compounds (Cbl-b Binding (IC50)).

Jurkat cells = assay: IL-2 secretion assay in CD3/CD28-activated Jurkat cells (AlphaLISA); type: cell-based, human; conditions: CD3/CD28 activation, 24 h
Protocol: Certain compounds were also evaluated in an IL-2 secretion assay. On the day of the assay, a 16 point, 1:2 master serial dilution of each compound was prepared in Opti-MEM to span a final concentration range of […]. Assays were set up in CORNING® tissue culture-treated 384-well microplates containing 60 nL of each dilution. Jurkat cells grown in RPMI-1640 supplemented with 10% FBS, 1% Glutamax, and 1% Pen/Strep were collected, resuspended in Opti-MEM. 50,000 cells/well and added to the compound plates. After a short spin (1200 rpm for 1 min), the plates were incubated at 37° C. for 1 hour. The cells were activated by adding 15 μL of IMMUNOCULT™ Human CD3/CD28 T Cell Activator (STEMCELL Technologies) diluted in Opti-MEM. After 24 h of incubation at 37° C., aliquots of culture supernatants were transferred to OptiPlate-384 (PerkinElmer) microplates. The level of JIL-2 secretion in the supernatants was then determined using the IL-2 (human) AiphaLISA Detection Kit (PerkinElmer) according to the manufacturer's recommendations. The AiphaLISA signal was measured using an EnVision plate reader (PerkinElmer). EC50 values were determined by fitting the data to a standard 4-parameter logistic equation. See Table 3 for data for select compounds (IL-2 Secretion (EC50)).

Chain of Cbl-b (Q13191 whole entry, species assumed): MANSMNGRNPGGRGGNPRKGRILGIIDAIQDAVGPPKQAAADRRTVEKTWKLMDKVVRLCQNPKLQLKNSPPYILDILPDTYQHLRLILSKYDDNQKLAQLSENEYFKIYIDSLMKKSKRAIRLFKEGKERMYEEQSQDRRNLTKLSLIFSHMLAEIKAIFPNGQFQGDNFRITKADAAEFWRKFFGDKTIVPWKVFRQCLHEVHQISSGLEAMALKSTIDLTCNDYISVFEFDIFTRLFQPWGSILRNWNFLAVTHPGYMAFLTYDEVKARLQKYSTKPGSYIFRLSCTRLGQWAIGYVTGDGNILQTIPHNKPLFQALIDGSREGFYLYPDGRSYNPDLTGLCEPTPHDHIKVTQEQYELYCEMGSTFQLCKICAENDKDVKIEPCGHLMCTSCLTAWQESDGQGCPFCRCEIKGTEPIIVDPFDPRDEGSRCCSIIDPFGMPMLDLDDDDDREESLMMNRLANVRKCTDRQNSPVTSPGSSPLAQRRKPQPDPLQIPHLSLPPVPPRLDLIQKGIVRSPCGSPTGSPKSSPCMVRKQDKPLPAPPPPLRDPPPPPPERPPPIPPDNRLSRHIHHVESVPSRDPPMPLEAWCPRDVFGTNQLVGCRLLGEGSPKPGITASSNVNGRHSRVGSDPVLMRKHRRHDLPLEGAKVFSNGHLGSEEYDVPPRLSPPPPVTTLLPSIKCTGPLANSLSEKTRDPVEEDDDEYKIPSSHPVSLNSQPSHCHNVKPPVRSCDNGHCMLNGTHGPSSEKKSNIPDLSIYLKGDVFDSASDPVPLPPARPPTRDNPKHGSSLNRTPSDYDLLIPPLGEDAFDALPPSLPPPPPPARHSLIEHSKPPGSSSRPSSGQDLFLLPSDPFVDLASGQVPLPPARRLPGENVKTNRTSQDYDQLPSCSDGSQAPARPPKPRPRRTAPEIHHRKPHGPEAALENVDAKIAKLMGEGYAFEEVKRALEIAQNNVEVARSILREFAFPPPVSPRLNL

Compound: O=C(c1cc(F)ccc1-c1cc(C2CC2)nc(-n2cnc3cc(C4CC4)[nH]c3c2=O)c1)N1CC(F)C1 [Example 33, 6-cyclopropyl-3-[6-cyclopropyl-4-[4-fluoro-2-(3-fluoroazetidine-1-carbonyl)phenyl]pyridin-2-yl]-5H-pyrrolo[3,2-d]pyrimidin-4-one]
- IC50 (Cbl-b): 100 to 1000 nM
- EC50 (Jurkat cells; Homo sapiens): 100 to 1000 nM

Compound: COC[C@H](C)NCc1cc2ncn(-c3cc(-c4ccc(F)cc4C(=O)N4CC(F)(F)C4)cc(C4CC4)n3)c(=O)c2[nH]1 [Example 34, 3-[6-cyclopropyl-4-[2-(3,3-difluoroazetidine-1-carbonyl)-4-fluorophenyl]pyridin-2-yl]-6-[[[(2S)-1-methoxypropan-2-yl]amino]methyl]-5H-pyrrolo[3,2-d]pyrimidin-4-one]
- IC50 (Cbl-b): < 100 nM
- EC50 (Jurkat cells; Homo sapiens): < 100 nM

Compound: COCCNCc1cc2ncn(-c3cc(-c4ccc(F)cc4C(=O)N4CC(F)C4)cc(C4CC4)n3)c(=O)c2[nH]1 [Example 35, 3-[6-cyclopropyl-4-[4-fluoro-2-(3-fluoroazetidine-1-carbonyl)phenyl]pyridin-2-yl]-6-[(2-methoxyethylamino)methyl]-5H-pyrrolo[3,2-d]pyrimidin-4-one]
- IC50 (Cbl-b): < 100 nM
- EC50 (Jurkat cells; Homo sapiens): < 100 nM

Compound: CC1(NCc2cc3ncn(-c4cc(-c5ccc(F)cc5C(=O)N5CC(F)C5)cc(C5CC5)n4)c(=O)c3[nH]2)CCC1 [Example 36, 3-[6-cyclopropyl-4-[4-fluoro-2-(3-fluoroazetidine-1-carbonyl)phenyl]pyridin-2-yl]-6-[[(1-methylcyclobutyl)amino]methyl]-5H-pyrrolo[3,2-d]pyrimidin-4-one]
- IC50 (Cbl-b): < 100 nM
- EC50 (Jurkat cells; Homo sapiens): < 100 nM

Compound: O=C(c1cc(F)ccc1-c1cc(C2CC2)nc(-n2cnc3cc(CN4CC5CCC4C5)[nH]c3c2=O)c1)N1CC(F)C1 (stereo not shown) [Example 37, 6-(2-azabicyclo[2.2.1]heptan-2-ylmethyl)-3-[6-cyclopropyl-4-[4-fluoro-2-(3-fluoroazetidine-1-carbonyl)phenyl]pyridin-2-yl]-5H-pyrrolo[3,2-d]pyrimidin-4-one]
- IC50 (Cbl-b): < 100 nM
- EC50 (Jurkat cells; Homo sapiens): 100 to 1000 nM

Compound: COCCN(C)Cc1cc2ncn(-c3cc(-c4ccc(F)cc4C(=O)N4CC(F)(F)C4)cc(C4CC4)n3)c(=O)c2[nH]1 [Example 38, 3-[6-cyclopropyl-4-[2-(3,3-difluoroazetidine-1-carbonyl)-4-fluorophenyl]pyridin-2-yl]-6-[[2-methoxyethyl(methyl)amino]methyl]-5H-pyrrolo[3,2-d]pyrimidin-4-one]
- IC50 (Cbl-b): < 100 nM
- EC50 (Jurkat cells; Homo sapiens): 100 to 1000 nM

Compound: O=C(c1cc(F)ccc1-c1cc(C2CC2)nc(-n2cnc3cc(CNCCC(F)(F)F)[nH]c3c2=O)c1)N1CC(F)(F)C1 [Example 39, 3-[6-cyclopropyl-4-[2-(3,3-difluoroazetidine-1-carbonyl)-4-fluorophenyl]pyridin-2-yl]-6-[(3,3,3-trifluoropropylamino)methyl]-5H-pyrrolo[3,2-d]pyrimidin-4-one]
- IC50 (Cbl-b): < 100 nM
- EC50 (Jurkat cells; Homo sapiens): < 100 nM

Compound: COCCNCc1cc2ncn(-c3cc(-c4ccc(F)cc4C(=O)N4CC(F)(F)C4)cc(C4CC4)c3)c(=O)c2[nH]1 [Example 41, 6-{5-cyclopropyl-2′-[(3,3-difluoro-1-azetidinyl)carbonyl]-4′-fluoro-3-biphenylyl}-2-[(2-methoxyethylamino)methyl]-1,6-dihydro-1,4,6-triaza-7-indenone]
- IC50 (Cbl-b): < 100 nM
- EC50 (Jurkat cells; Homo sapiens): 100 to 1000 nM

Compound: COC1CN(Cc2cc3ncn(-c4cc(-c5ccc(F)cc5C(=O)N5CC(F)(F)C5)cc(C5CC5)n4)c(=O)c3[nH]2)C1 [Example 43, 6-(6-cyclopropyl-4-{2-[(3,3-difluoro-1-azetidinyl)carbonyl]-4-fluorophenyl}-2-pyridyl)-2-[(3-methoxy-1-azetidinyl)methyl]-1,6-dihydro-1,4,6-triaza-7-indenone]
- IC50 (Cbl-b): < 100 nM
- EC50 (Jurkat cells; Homo sapiens): 100 to 1000 nM

Compound: COCCNCc1cc2ncn(-c3cc(-c4ccc(F)cc4C(=O)N4CC(F)(F)C4)cc(C4CC4)n3)c(=O)c2[nH]1 [Example 44, 6-(6-cyclopropyl-4-{2-[(3,3-difluoro-1-azetidinyl)carbonyl]-4-fluorophenyl}-2-pyridyl)-2-[(2-methoxyethylamino)methyl]-1,6-dihydro-1,4,6-triaza-7-indenone]
- IC50 (Cbl-b): < 100 nM
- EC50 (Jurkat cells; Homo sapiens): < 100 nM

Compound: C[C@H]1CCCN(Cc2cc3c(C#N)cn(-c4cc(-c5c(C(=O)N6CC(F)C6)cnn5C)cc(C5CC5)n4)c(=O)c3[nH]2)C1 [Example 45, 2-{[(S)-3-methyl-1-piperidyl]methyl}-6-(6-cyclopropyl-4-{4-[(3-fluoro-1-azetidinyl)carbonyl]-1-methyl-5-pyrazolyl}-2-pyridyl)-7-oxo-1,6-dihydro-1,6-diaza-4-indenecarbonitrile]
- IC50 (Cbl-b): < 100 nM
- EC50 (Jurkat cells; Homo sapiens): 100 to 1000 nM

Compound: C[C@H]1CCCN(Cc2[nH]c3c(=O)n(-c4cc(-c5ccc(F)cc5C(=O)N5CC(F)C5)cc(C5CC5)n4)cc(C#N)c3c2Cl)C1 [Example 46, 2-{[(S)-3-methyl-1-piperidyl]methyl}-3-chloro-6-(6-cyclopropyl-4-{4-fluoro-2-[(3-fluoro-1-azetidinyl)carbonyl]phenyl}-2-pyridyl)-7-oxo-1,6-dihydro-1,6-diaza-4-indenecarbonitrile]
- IC50 (Cbl-b): < 100 nM
- EC50 (Jurkat cells; Homo sapiens): < 100 nM

Compound: CC(c1cc2ncn(-c3cc(-c4ccc(F)cc4C(=O)N4CC(F)C4)cc(C4CC4)n3)c(=O)c2[nH]1)N1CCO[C@H](C)C1 (stereo partly drawn) [Example 47, 2-{1-[(R)-2-methyl-4-morpholinyl]ethyl}-6-(6-cyclopropyl-4-{4-fluoro-2-[(3-fluoro-1-azetidinyl)carbonyl]phenyl}-2-pyridyl)-1,6-dihydro-1,4,6-triaza-7-indenone]
- IC50 (Cbl-b): < 100 nM
- EC50 (Jurkat cells; Homo sapiens): 100 to 1000 nM

Compound: C[C@H]1CCCN(Cc2nc3c(C(F)(F)F)cn(-c4cc(-c5ccc(F)cc5C(=O)N5CC(F)C5)cc(C5CC5)n4)c(=O)c3[nH]2)C1 [Example 48, 5-[6-cyclopropyl-4-[4-fluoro-2-(3-fluoroazetidine-1-carbonyl)phenyl]pyridin-2-yl]-2-[[(3S)-3-methylpiperidin-1-yl]methyl]-7-(trifluoromethyl)-3H-imidazo[4,5-c]pyridin-4-one]
- IC50 (Cbl-b): < 100 nM
- EC50 (Jurkat cells; Homo sapiens): < 100 nM

Compound: Cc1cn(-c2cc(-c3ccc(F)cc3C(=O)N3CC(F)C3)cc(C3CC3)n2)c(=O)c2[nH]c([C@H]3CCCN3)nc12 [Example 49, 5-[6-cyclopropyl-4-[4-fluoro-2-(3-fluoroazetidine-1-carbonyl)phenyl]pyridin-2-yl]-7-methyl-2-[(2R)-pyrrolidin-2-yl]-3H-imidazo[4,5-c]pyridin-4-one]
- IC50 (Cbl-b): < 100 nM
- EC50 (Jurkat cells; Homo sapiens): > 5000 nM

Compound: Cc1cn(-c2cc(-c3ccc(F)cc3C(=O)N3CC(F)C3)cc(C3CC3)n2)c(=O)c2[nH]c([C@@H]3CCCN3)nc12 [Example 50, 5-[6-cyclopropyl-4-[4-fluoro-2-(3-fluoroazetidine-1-carbonyl)phenyl]pyridin-2-yl]-7-methyl-2-[(2S)-pyrrolidin-2-yl]-3H-imidazo[4,5-c]pyridin-4-one]
- IC50 (Cbl-b): 100 to 1000 nM
- EC50 (Jurkat cells; Homo sapiens): > 5000 nM

Compound: N#Cc1c[nH]c2c(=O)n(-c3cc(-c4ccc(F)cc4C(=O)C4CC(F)C4)cc(C4CC4)n3)cc(C(F)(F)F)c12 (stereo not shown) [Example 51, 6-[6-cyclopropyl-4-[4-fluoro-2-(3-fluorocyclobutanecarbonyl)phenyl]pyridin-2-yl]-7-oxo-4-(trifluoromethyl)-1H-pyrrolo[2,3-c]pyridine-3-carbonitrile]
- IC50 (Cbl-b): < 100 nM
- EC50 (Jurkat cells): 100 to 1000 nM
